This is an account of results in patent US6517839B1, “Methods for inducing interleukin-12 and a type1/Th1 T-cell response” (priority 1997, dated 2003).

This test has as its system THP-1 cells. Description: IL-12 p40 release from THP-1 cells, measured by ELISA of 20 h supernatants. In kind it is cell-based, human. Particulars: for IL-12 p40 release: Example 7, FIG. 10, THP-1 20 h. (In general: ELISA stands for enzyme-linked immunosorbent assay.)

In the case of “38 kDa lipoprotein: M. tuberculosis 38 kDa lipoprotein antigen; migrates as 39 kDa band”, where the note is “Example 4, FIG. 7, solubilized gel regions of Rotofor fraction #4, average of four experiments”, the “IL-12 p40 release (monocyte Western blot)” value is listed as “some contribution”.
For “recombinant 19 kDa expressed in E. coli: recombinant form of the M. tuberculosis 19 kDa antigen expressed in E. coli”, the “IL-12 p40 release” value is recorded as “failed to induce any IL-12 p40”.
As for “recombinant 19 kDa expressed in M. vaccae: recombinant form of the M. tuberculosis 19 kDa antigen expressed in a mycobacterial system, M. vaccae”, the “IL-12 p40 release” value is given as “stimulated IL-12 p40 release in an equivalent manner”.
